Measured values: PubChem BioAssay AID1259407 (Chemical Carcinogenesis Research Information System (CCRIS), 2018)
Active and inactive are the calls of the source. How the calls were made is not given here.

System: CCRIS mutagenicity, Ames/micronucleus/aberration tests
Assay: CCRIS mutagenicity studies
[1] = Test System: AMES SALMONELLA TYPHIMURIUM, Strain/Indicator: TA98, Metabolic Activation: NONE, Method: PREINCUBATION
[2] = Test System: AMES SALMONELLA TYPHIMURIUM, Strain/Indicator: TA100, Metabolic Activation: NONE, Method: PREINCUBATION
[3] = Test System: AMES SALMONELLA TYPHIMURIUM, Strain/Indicator: TA98, Metabolic Activation: RAT, LIVER, S-9, PCB, Method: PREINCUBATION
[4] = Test System: AMES SALMONELLA TYPHIMURIUM, Strain/Indicator: TA100, Metabolic Activation: RAT, LIVER, S-9, PCB, Method: PREINCUBATION

Measured: mutagenic call

ClC(Cl)Cl
inactive: Test System: AMES SALMONELLA TYPHIMURIUM, Strain/Indicator: RSJ100, Metabolic Activation: NONE, Method: PREINCUBATION inactive; negative | Test System: AMES SALMONELLA TYPHIMURIUM, Strain/Indicator: RSJ100, Metabolic Activation: RAT LIVER S-9, Method: PREINCUBATION inactive; negative | [1] inactive; negative | Test System: AMES SALMONELLA TYPHIMURIUM, Strain/Indicator: TA98, Metabolic Activation: RAT LIVER S-9, Method: PREINCUBATION inactive; negative | Test System: AMES SALMONELLA TYPHIMURIUM, Strain/Indicator: TA100, Metabolic Activation: NONE, Method: FLUCTUATION TEST inactive; negative | [2] inactive; negative | Test System: AMES SALMONELLA TYPHIMURIUM, Strain/Indicator: TA100, Metabolic Activation: RAT LIVER S-9, Method: PREINCUBATION inactive; negative | Test System: AMES SALMONELLA TYPHIMURIUM, Strain/Indicator: TA100, Metabolic Activation: RAT, LIVER, S-9, AROCLOR 1254, Method: FLUCTUATION TEST inactive; negative | Test System: AMES SALMONELLA TYPHIMURIUM, Strain/Indicator: TA1535 (GST-), Metabolic Activation: NONE, Method: STANDARD PLATE inactive; negative | Test System: Ames Salmonella typhimurium, Strain/Indicator: TA98, Metabolic Activation: None, Method: Gas exposure method inactive; negative | Test System: Ames Salmonella typhimurium, Strain/Indicator: TA98, Metabolic Activation: Rat, Liver, S9, Sodium phenobarbital and 5,6-benzoflavone (10%), Method: Gas exposure method inactive; negative | Test System: Ames Salmonella typhimurium, Strain/Indicator: TA100, Metabolic Activation: None, Method: Gas exposure method inactive; negative | Test System: Ames Salmonella typhimurium, Strain/Indicator: TA100, Metabolic Activation: Rat, Liver, S9, Sodium phenobarbital and 5,6-benzoflavone (10%), Method: Gas exposure method inactive; negative | Test System: Ames Salmonella typhimurium, Strain/Indicator: TA1535, Metabolic Activation: None, Method: Gas exposure method inactive; negative | Test System: Ames Salmonella typhimurium, Strain/Indicator: TA1535, Metabolic Activation: Rat, Liver, S9, Sodium phenobarbital and 5,6-benzoflavone (10%), Method: Gas exposure method inactive; negative | Test System: Ames Salmonella typhimurium, Strain/Indicator: TA1537, Metabolic Activation: None, Method: Gas exposure method inactive; negative | Test System: Ames Salmonella typhimurium, Strain/Indicator: TA1537, Metabolic Activation: Rat, Liver, S9, Sodium phenobarbital and 5,6-benzoflavone (10%), Method: Gas exposure method inactive; negative | Test System: CHINESE HAMSTER V-79, Strain/Indicator: V-79/OUABAIN, Metabolic Activation: NONE, Method: SUSPENSION/PLATE inactive; negative | Test System: E. coli, Strain/Indicator: WP2/pKM101, Metabolic Activation: None, Method: Gas exposure method inactive; negative (two experimental trials) | Test System: E. coli, Strain/Indicator: WP2/pKM101, Metabolic Activation: Rat, Liver, S9, Sodium phenobarbital and 5,6-benzoflavone (10%) with glutathione, Method: Gas exposure method inactive; negative (two experimental trials) | Test System: E. coli, Strain/Indicator: WP2/pKM101, Metabolic Activation: Rat, Liver, S9, Sodium phenobarbital and 5,6-benzoflavone (10%) without glutathione, Method: Gas exposure method inactive; negative (two experimental trials) | Test System: E. coli, Strain/Indicator: WP2uvrA/pKM101, Metabolic Activation: None, Method: Gas exposure method inactive; negative | Test System: E. coli, Strain/Indicator: WP2uvrA/pKM101, Metabolic Activation: Rat, Liver, S9, Sodium phenobarbital and 5,6-benzoflavone (10%), Method: Gas exposure method inactive; negative | Test System: E.COLI, Strain/Indicator: WP2UVRA/PKM101, Metabolic Activation: NONE, Method: GAS EXPOSURE inactive; negative | Test System: E.COLI, Strain/Indicator: WP2UVRA/PKM101, Metabolic Activation: RAT LIVER S-9, PHENOBARBITOL AND 5,6-BENZOFLAVONE, Method: GAS EXPOSURE inactive; negative | Test System: MOUSE LYMPHOMA, Strain/Indicator: L5178Y (TK+/TK-), Metabolic Activation: NONE, Method: SUSPENSION/PLATE inactive; negative | Test System: UDS MOUSE HEPATOCYTES, Strain/Indicator: THY INCORP, Metabolic Activation: NONE, Method: AUTORADIOGRAPHY inactive; negative
active: Test System: AMES SALMONELLA TYPHIMURIUM, Strain/Indicator: TA98, Metabolic Activation: NONE, Method: STANDARD PLATE active; positive | Test System: AMES SALMONELLA TYPHIMURIUM, Strain/Indicator: TA98, Metabolic Activation: RAT, LIVER, S-9, AROCLOR 1254, Method: STANDARD PLATE active; positive | Test System: AMES SALMONELLA TYPHIMURIUM, Strain/Indicator: TA100, Metabolic Activation: NONE, Method: STANDARD PLATE active; positive | Test System: AMES SALMONELLA TYPHIMURIUM, Strain/Indicator: TA100, Metabolic Activation: RAT, LIVER, S-9, AROCLOR 1254, Method: STANDARD PLATE active; positive | Test System: AMES SALMONELLA TYPHIMURIUM, Strain/Indicator: TA1535, Metabolic Activation: RAT, LIVER, S-9, AROCLOR 1254, Method: STANDARD PLATE active; positive | Test System: AMES SALMONELLA TYPHIMURIUM, Strain/Indicator: TA1537, Metabolic Activation: NONE, Method: STANDARD PLATE active; positive | Test System: AMES SALMONELLA TYPHIMURIUM, Strain/Indicator: TA1537, Metabolic Activation: RAT, LIVER, S-9, AROCLOR 1254, Method: STANDARD PLATE active; positive | Test System: CHINESE HAMSTER V-79, Strain/Indicator: V-79/8-AZAGUANINE, Metabolic Activation: NONE, Method: SUSPENSION/PLATE active; positive | Test System: E.COLI, Strain/Indicator: WP2UVRA/PKM101, Metabolic Activation: RAT LIVER S-9, PHENOBARBITOL AND 5,6-BENZOFLAVONE, GLUTATHIONE-SUPPLEMENTED, Method: GAS EXPOSURE active; positive | Test System: MOUSE LYMPHOMA, Strain/Indicator: L5178Y (TK+/TK-), Metabolic Activation: RAT, LIVER, S-9, AROCLOR 1254, Method: SUSPENSION/PLATE active; positive

NNc1nncc2cnccc12
active: [1] active; positive | [3] active; positive | [2] active; positive | [4] active; positive

C=C1C[C@@]23CC[C@H]4[C@@](C)(CCC[C@@]4(C)C(=O)O)[C@@H]2CC[C@]1(O)C3
inactive: Test System: AMES SALMONELLA TYPHIMURIUM, Strain/Indicator: TA97, Metabolic Activation: NONE, Method: PREINCUBATION inactive; negative | Test System: AMES SALMONELLA TYPHIMURIUM, Strain/Indicator: TA97, Metabolic Activation: RAT, LIVER, S-9, PCB, Method: PREINCUBATION inactive; negative | [1] inactive; negative | [3] inactive; negative | Test System: AMES SALMONELLA TYPHIMURIUM, Strain/Indicator: TA98, Metabolic Activation: RAT, LIVER, S-9, SODIUM PHENOBARBITAL AND 5,6-BENZOFLAVONE, Method: PREINCUBATION inactive; negative | [2] inactive; negative | [4] inactive; negative | Test System: AMES SALMONELLA TYPHIMURIUM, Strain/Indicator: TA100, Metabolic Activation: RAT, LIVER, S-9, SODIUM PHENOBARBITAL AND 5,6-BENZOFLAVONE, Method: PREINCUBATION inactive; negative | Test System: AMES SALMONELLA TYPHIMURIUM, Strain/Indicator: TA102, Metabolic Activation: NONE, Method: PREINCUBATION inactive; negative | Test System: AMES SALMONELLA TYPHIMURIUM, Strain/Indicator: TA102, Metabolic Activation: RAT, LIVER, S-9, PCB, Method: PREINCUBATION inactive; negative | Test System: AMES SALMONELLA TYPHIMURIUM, Strain/Indicator: TA104, Metabolic Activation: NONE, Method: PREINCUBATION inactive; negative | Test System: AMES SALMONELLA TYPHIMURIUM, Strain/Indicator: TA104, Metabolic Activation: RAT, LIVER, S-9, PCB, Method: PREINCUBATION inactive; negative | Test System: AMES SALMONELLA TYPHIMURIUM, Strain/Indicator: TM677, Metabolic Activation: NONE, Method: PREINCUBATION inactive; negative
active: Test System: AMES SALMONELLA TYPHIMURIUM, Strain/Indicator: TM677, Metabolic Activation: RAT, LIVER, MICROSOMES, AROCLOR 1254, Method: SUSPENSION/PLATE active; positive | Test System: AMES SALMONELLA TYPHIMURIUM, Strain/Indicator: TM677, Metabolic Activation: RAT, LIVER, S-9, AROCLOR 1254, Method: PREINCUBATION active; positive | Test System: AMES SALMONELLA TYPHIMURIUM, Strain/Indicator: TM677, Metabolic Activation: RAT, LIVER, S-9, AROCLOR 1254, Method: SUSPENSION/PLATE active; positive

[2H]C([2H])([2H])N=NO
active: Test System: AMES SALMONELLA TYPHIMURIUM, Strain/Indicator: TA1535, Metabolic Activation: NONE, Method: STANDARD PLATE active; positive | Test System: E. COLI, Strain/Indicator: WP2, Metabolic Activation: NONE, Method: STANDARD PLATE active; positive | Test System: E. COLI, Strain/Indicator: WP2 UVRA, Metabolic Activation: NONE, Method: STANDARD PLATE active; positive
